# Data as given in article PMC7339578, “Multiple circulating alkaloids and saponins from intravenous Kang-Ai injection inhibit human cytochrome P450 and UDP-glucuronosyltransferase isozymes: potential drug–drug interactions” (Chinese Medicine, 2020).
# Tests used:
# [1] = Plasma pharmacokinetics in rats after a 30-min intravenous infusion of Kang-Ai injection; type: in vivo, Sprague–Dawley rats
# Summary of the method: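 Fasted male Sprague–Dawley rats (250 ± 20 g) got a single 30-min tail-vein infusion of Kang-Ai injection at 6 mL/kg. Jugular blood was sampled from 5 min to 12 h for plasma. Parameters came from non-compartmental analysis (trapezoidal AUC), n = 3.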
# [2] = Urinary (renal) excretion in rats after a 30-min infusion of Kang-Ai injection; type: in vivo, Sprague–Dawley rats; conditions: rat urine + bile, 0–12 h; Kang-Ai injection 6 mL/kg iv
# Summary of the method: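 Urine collected in metabolic cages at 0–4, 4–8, 8–12 h and bile at 0–3, 3–6, 6–9, 9–12 h after infusion start, weighed and frozen at −80 °C. Non-compartmental analysis; CLR and CLB as cumulative urinary or biliary amount divided by plasma AUC0-∞, fe-U and fe-B as cumulative amount/dose; mean ± SD (n = 3).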
# CYP2A6 = target: T1, CYP2A6 (Homo sapiens, UniProt P11509); experiment: Inhibition of recombinant CYP2A6 (probe coumarin); type: in vitro ADME; conditions: recombinant isozyme; mean ± SD of triplicate; unit not given (IC50 classes in μM); read-out: IC50 towards CYP2A6
# T1 sequence (P11509 1-494): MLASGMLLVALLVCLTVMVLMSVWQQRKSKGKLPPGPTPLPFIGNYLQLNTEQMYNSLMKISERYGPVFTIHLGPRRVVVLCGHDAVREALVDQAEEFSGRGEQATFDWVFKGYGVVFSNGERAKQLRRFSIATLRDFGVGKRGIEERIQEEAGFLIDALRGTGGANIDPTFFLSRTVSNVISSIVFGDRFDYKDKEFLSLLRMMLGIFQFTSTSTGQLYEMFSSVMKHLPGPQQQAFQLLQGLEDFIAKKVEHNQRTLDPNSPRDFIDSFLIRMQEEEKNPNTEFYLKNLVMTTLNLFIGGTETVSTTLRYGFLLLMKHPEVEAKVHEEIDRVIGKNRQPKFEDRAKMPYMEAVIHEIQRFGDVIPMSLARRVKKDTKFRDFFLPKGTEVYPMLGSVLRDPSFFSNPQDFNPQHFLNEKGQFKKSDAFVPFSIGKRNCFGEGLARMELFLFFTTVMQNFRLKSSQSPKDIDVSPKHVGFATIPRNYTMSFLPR
# Protocol: (§1) In this study, phenacetin (100 μM), coumarin (100 μM), bupropion (100 μM), paclitaxel (60 μM), tolbutamide (200 μM), mephenytoin (100 μM), chlorzoxazone (200 μM) and nifedipine (40 μM) have been used as the probe substrates for CYP1A2, 2A6, 2B6, 2C8, 2C9, 2C19, 2E1 and 3A4, respectively.
# CYP2C9 = CYP2C9 (Homo sapiens, UniProt P11712); experiment: Inhibition of recombinant CYP2C9 (probe tolbutamide); type: in vitro ADME
# CYP2C9, sequence (P11712 whole entry): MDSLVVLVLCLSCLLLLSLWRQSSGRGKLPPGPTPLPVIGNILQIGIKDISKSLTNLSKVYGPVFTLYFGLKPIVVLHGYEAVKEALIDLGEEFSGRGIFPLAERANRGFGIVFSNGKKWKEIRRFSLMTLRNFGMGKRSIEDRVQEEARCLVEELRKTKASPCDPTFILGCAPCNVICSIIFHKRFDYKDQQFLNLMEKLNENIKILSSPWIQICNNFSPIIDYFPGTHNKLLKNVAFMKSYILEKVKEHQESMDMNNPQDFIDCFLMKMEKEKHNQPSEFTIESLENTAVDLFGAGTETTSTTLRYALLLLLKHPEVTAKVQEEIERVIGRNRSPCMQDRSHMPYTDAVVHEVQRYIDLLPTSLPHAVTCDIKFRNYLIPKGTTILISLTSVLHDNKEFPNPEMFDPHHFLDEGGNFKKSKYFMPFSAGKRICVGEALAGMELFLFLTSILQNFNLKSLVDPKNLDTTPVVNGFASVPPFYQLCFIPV
# Protocol: as §1
# CYP3A4 = CYP3A4 (Homo sapiens, UniProt P08684); experiment: Inhibition of recombinant CYP3A4 (probe nifedipine); type: in vitro ADME; conditions: recombinant isozyme; mean ± SD of triplicate; unit not given (IC50 classes in μM); read-out: IC50 towards CYP3A4
# CYP3A4, sequence (P08684 whole entry): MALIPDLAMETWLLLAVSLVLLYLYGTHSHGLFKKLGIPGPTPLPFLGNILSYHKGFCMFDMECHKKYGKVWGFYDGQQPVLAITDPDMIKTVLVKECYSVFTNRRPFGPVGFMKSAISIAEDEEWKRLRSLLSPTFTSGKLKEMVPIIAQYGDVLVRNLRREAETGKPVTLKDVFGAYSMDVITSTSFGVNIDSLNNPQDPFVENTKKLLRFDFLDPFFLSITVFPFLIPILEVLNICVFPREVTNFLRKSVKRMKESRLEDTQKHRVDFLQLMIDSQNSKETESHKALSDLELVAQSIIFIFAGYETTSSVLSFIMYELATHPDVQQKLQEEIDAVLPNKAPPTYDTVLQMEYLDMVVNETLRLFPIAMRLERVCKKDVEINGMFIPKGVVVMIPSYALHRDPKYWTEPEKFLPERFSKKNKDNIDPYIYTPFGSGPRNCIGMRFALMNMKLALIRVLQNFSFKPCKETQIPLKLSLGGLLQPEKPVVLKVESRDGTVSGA
# Protocol: as §1
# [3] = Stability tests of analytes in rat plasma QC samples; type: in vitro ADME; conditions: rat plasma
# Protocol: […] The dilution integrity was investigated by analyzing six replicate samples with each analyte, and each analyte were diluted 10-fold with blank rat matrix. Furthermore, the diluted samples were analyzed using freshly prepared calibration curve to calculate RE and RSD, which should be no more than ± 15% as criterion.
compound,measurement,setting,value
"CC(C)(O)[C@@H]1CC[C@](C)([C@H]2[C@@H](O)C[C@@]3(C)[C@@H]4C[C@H](O[C@@H]5O[C@H](CO)[C@@H](O)[C@H](O)[C@H]5O)[C@H]5C(C)(C)[C@@H](O[C@@H]6OC[C@@H](O)[C@H](O)[C@H]6O)CC[C@@]56C[C@@]46CC[C@]23C)O1 [Compound B2, Astragaloside IV]",t1/2,"[1]; rat plasma, 30-min iv infusion of Kang-Ai injection 6 mL/kg",1.64 ± 0.26 h
same,Cmax,"[1]; rat plasma, 30-min iv infusion of Kang-Ai injection 6 mL/kg, read-out: Cmax",2360 ± 252 nM
same,VSS (Vd),"[1]; rat, Kang-Ai injection 6 mL/kg iv",< 0.1 L/kg
same,fraction of dose excreted unchanged via renal plus hepatobiliary excretion (sum of fe-U and fe-B),[2],about 25%
same,IC50,CYP2A6,> 100 µM
same,inhibition type (smallest AIC and SC),CYP2C9; CYP2C9,Noncompetitive inhibition
same,Ki,"CYP2C9; CYP2C9, competitive model",17.4 ± 3.7 µM
same,Ki,"CYP2C9; CYP2C9, mixed-type model",45 ± 16.6 µM
same,α,"CYP2C9; CYP2C9, mixed-type model",1.5 ± 1.0
same,Ki,"CYP2C9; CYP2C9, noncompetitive model",55.8 ± 5.3 µM
same,Cmax/Ki ([I]/Ki),"CYP2C9; CYP2C9, selected model, rat plasma Cmax",0.04
same,IC50,"CYP2C9; tolbutamide 200 μM, read-out: IC50 towards CYP2C9",65 µM
same,IC50,CYP3A4,> 100 µM
same,"At -80 °C for 48 h, Mean±SD",[3]; nominal conc. 80 nM,87.06 ± 0.84 nM
same,"At -80 °C for 48 h, RE",[3]; nominal conc. 80 nM,9.91%
same,"Extracted samples at 8 °C for 18 h, Mean±SD",[3]; nominal conc. 80 nM,80.76 ± 10.01 nM
same,"Extracted samples at 8 °C for 18 h, RE",[3]; nominal conc. 80 nM,-13.07%
same,"Short-term stability at room temperature for 6 h, Mean±SD",[3]; nominal conc. 80 nM,82.35 ± 9.84 nM
same,"Short-term stability at room temperature for 6 h, RE",[3]; nominal conc. 80 nM,-11.26%
same,"Three freeze-thaw cycles (-80 °C ↔ 23 °C), Mean±SD",[3]; nominal conc. 80 nM,88.56 ± 1.31 nM
same,"Three freeze-thaw cycles (-80 °C ↔ 23 °C), RE",[3]; nominal conc. 80 nM,12.35%
same,"At -80 °C for 48 h, Mean±SD",[3]; nominal conc. 400 nM,378.90 ± 6.78 nM
same,"At -80 °C for 48 h, RE",[3]; nominal conc. 400 nM,-7.16%
same,"Extracted samples at 8 °C for 18 h, Mean±SD",[3]; nominal conc. 400 nM,376.72 ± 29.81 nM
same,"Extracted samples at 8 °C for 18 h, RE",[3]; nominal conc. 400 nM,-10.44%
same,"Short-term stability at room temperature for 6 h, Mean±SD",[3]; nominal conc. 400 nM,361.42 ± 15.40 nM
same,"Short-term stability at room temperature for 6 h, RE",[3]; nominal conc. 400 nM,-13.36%
same,"Three freeze-thaw cycles (-80 °C ↔ 23 °C), Mean±SD",[3]; nominal conc. 400 nM,385.93 ± 32.19 nM
same,"Three freeze-thaw cycles (-80 °C ↔ 23 °C), RE",[3]; nominal conc. 400 nM,-12.56%
same,"At -80 °C for 48 h, Mean±SD",[3]; nominal conc. 1600 nM,1507.16 ± 152.79 nM
same,"At -80 °C for 48 h, RE",[3]; nominal conc. 1600 nM,-12.08%
same,"Extracted samples at 8 °C for 18 h, Mean±SD",[3]; nominal conc. 1600 nM,1574.79 ± 151.38 nM
same,"Extracted samples at 8 °C for 18 h, RE",[3]; nominal conc. 1600 nM,-11.93%
same,"Short-term stability at room temperature for 6 h, Mean±SD",[3]; nominal conc. 1600 nM,1463.38 ± 60.14 nM
same,"Short-term stability at room temperature for 6 h, RE",[3]; nominal conc. 1600 nM,-11.64%
same,"Three freeze-thaw cycles (-80 °C ↔ 23 °C), Mean±SD",[3]; nominal conc. 1600 nM,1434.32 ± 47.18 nM
same,"Three freeze-thaw cycles (-80 °C ↔ 23 °C), RE",[3]; nominal conc. 1600 nM,-13.10%
